This is an account of results in patent US20080090805A1, “CB-1 MODULATING COMPOUNDS AND THEIR USE” (ACADIA PHARMACEUTICALS INC., priority 2005, published 2008).

The target of this assay is native CB1 receptors (Rattus norvegicus, UniProt P20272). Put plainly: CB1 receptor rat binding assay ([3H]SR141716A, rat brain membranes). To be noted: rat brain membranes, [3H]SR141716A; for Ki: read-out: Binding rat pKi (converted).
native CB1 receptors, sequence (P20272 whole entry): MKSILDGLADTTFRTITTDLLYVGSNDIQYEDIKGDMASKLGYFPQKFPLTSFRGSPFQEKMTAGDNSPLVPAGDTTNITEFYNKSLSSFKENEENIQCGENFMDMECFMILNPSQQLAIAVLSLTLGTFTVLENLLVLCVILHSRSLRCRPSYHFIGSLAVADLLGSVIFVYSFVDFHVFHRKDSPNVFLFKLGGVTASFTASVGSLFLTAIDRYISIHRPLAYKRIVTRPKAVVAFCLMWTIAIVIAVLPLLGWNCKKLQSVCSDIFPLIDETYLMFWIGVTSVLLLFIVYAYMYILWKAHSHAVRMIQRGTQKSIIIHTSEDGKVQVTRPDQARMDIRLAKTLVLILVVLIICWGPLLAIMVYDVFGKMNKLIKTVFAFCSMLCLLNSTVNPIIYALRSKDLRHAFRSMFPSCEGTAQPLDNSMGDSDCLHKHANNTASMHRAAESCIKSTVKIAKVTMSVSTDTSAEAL

On to `O=C(NCc1cccc(Cl)c1)c1ccc2c(c1)N=C(N1CCCCC1)c1ccccc1S2(=O)=O` [drawing 1428], for which the Ki was 50.1 nM.

Regarding `O=C(NCCc1cccc(Cl)c1)c1ccc2c(c1)N=C(C1CCCCC1)c1ccccc1S2` [drawing 1499], the Ki is 10 nM.

With `COc1ccc(C2=Nc3cc(C(=O)NC(C)C)ccc3Sc3ccccc32)cc1` [drawing 1550], the “Binding rat Inh %” value amounted to 79% and the Ki is 100 nM.

Turning to `O=C(NCCc1cccnc1)c1ccc2c(c1)N=C(c1ccc(Cl)s1)c1ccccc1S2` [drawing 1466], the “Binding rat Inh %” value is listed as 98% and the Ki was 7.94 nM.

With `O=C(NCc1cccc(Cl)c1)c1ccc2c(c1)N=C(c1ccc(F)cc1)c1ccccc1[S+]2[O-]` (stereo not shown) [drawing 1390], the Ki was 31.6 nM.

With `CCCCNC(=O)c1ccc2c(c1)N=C(c1ccc(Br)cn1)c1ccccc1S2` [drawing 1378], the “Binding rat Inh %” value was found to be 83% and the Ki was 5.01 nM.

As for `NS(=O)(=O)c1ccc(CNC(=O)c2ccc3c(c2)N=C(c2ccc(Cl)cc2)c2ccccc2S3)cc1` [drawing 1486], the “Binding rat Inh %” value is reported as 66% and the Ki was 63.1 nM.

As to `Cc1csc(CNC(=O)c2ccc3c(c2)N=C(c2sccc2C)c2ccccc2S3)c1` [drawing 1255], the “Binding rat Inh %” value came to 93% and the Ki is 1 nM.

Turning to `O=C(NCc1cccs1)c1ccc2c(c1)N=C(c1cccc(F)c1)c1ccccc1S2` [drawing 1384], the “Binding rat Inh %” value is reported as 95% and the Ki was 5.01 nM.

As to `COc1ccc(C2=Nc3cc(C(=O)NCc4cccnc4)ccc3Sc3ccccc32)cc1` [drawing 1438], the “Binding rat Inh %” value is 60% and the Ki is 50.1 nM.

Consider `O=C(NCCc1cccnc1)c1ccc2c(c1)N=C(c1ccc(Cl)cc1)c1ccccc1S2` [drawing 1334], for which the “Binding rat Inh %” value was 103% and the Ki is 25.1 nM.

As to `CCCNC(=O)c1ccc2c(c1)N=C(c1ccc(OC)cc1)c1ccccc1S2` [drawing 1403], the “Binding rat Inh %” value amounted to 80% and the Ki was 39.8 nM.

Regarding `N#Cc1ccc(C2=Nc3cc(C(=O)NNCc4ccccc4)ccc3Sc3ccccc32)cc1` [drawing 1538], the “Binding rat Inh %” value is 65% and the Ki is 100 nM.

As to `Cc1csc(CNC(=O)c2ccc3c(c2)N=C(c2ccc(Cl)s2)c2ccccc2S3)c1` [drawing 1232], the “Binding rat Inh %” value is reported as 90% and the Ki is 0.794 nM.

As to `O=C(NCCCC(F)(F)F)c1ccc2c(c1)N=C(c1ccc(Cl)cc1)c1ccccc1S2` [drawing 1226], the “Binding rat Inh %” value was 89% and the Ki is 0.631 nM.

`O=C(NCc1cccc(Cl)c1)c1ccc2c(c1)N=C(C1CCCCC1)c1cc(F)ccc1S2`: the Ki is 10 nM.

Turning to `Cc1ccsc1C1=Nc2cc(C(=O)NC(C)C)ccc2Sc2ccccc21` [drawing 1478], the “Binding rat Inh %” value worked out at 60% and the Ki is 63.1 nM.

As to `O=C(NCCCc1ccccc1)c1ccc2c(c1)N=C(c1ccc(Cl)cc1)c1ccccc1S2` [drawing 1434], the Ki was 6.31 nM.

Take `CCCCNC(=O)c1ccc2c(c1)N=C(c1ccc(Cl)s1)c1ccc(Cl)cc1S2` [drawing 1480]: the “Binding rat Inh %” value was determined as 90% and the Ki was 10 nM.

As for `CCCC1=Nc2cc(C(=O)NCCc3cc(OC)ccc3OC)ccc2Sc2ccccc21` [drawing 1549], the Ki is 100 nM.

Consider `O=C(NCc1ccccc1)c1ccc2c(c1)N=C(N1CCCCC1)c1ccccc1S2` [drawing 1253], for which the Ki was 15.8 nM.

As to `Cc1ccc(N2CCN(C(=O)c3ccc4c(c3)N=C(c3ccc(Cl)cc3)c3ccccc3S4)CC2)c(C)c1` [drawing 1546], the Ki was 100 nM.

`O=C(NCc1ccncc1)c1ccc2c(c1)N=C(c1ccc(Cl)cc1)c1ccccc1S2` [drawing 1294]: the “Binding rat Inh %” value is 77% and the Ki was 20 nM.

As to `COc1ccc(C2=Nc3cc(C(=O)NCCC(C)C)ccc3Sc3ccccc32)cc1` [drawing 1351], the “Binding rat Inh %” value is recorded as 81% and the Ki is 3.98 nM.

Consider `O=C(NN1CCCCC1)c1ccc2c(c1)N=C(c1ccccc1)c1ccccc1S2` [drawing 1462], for which the Ki is 50.1 nM.

Regarding `O=C(NCc1cccc(Cl)c1)c1ccc2c(c1)N=C(c1ccccc1)c1ccccc1S2` [drawing 1449], the Ki is 7.94 nM.

For the compound `Cc1ccsc1C1=Nc2cc(C(=O)NN3CCCCCC3)ccc2Sc2ccccc21` [drawing 1507], the “Binding rat Inh %” value is 76% and the Ki was 10 nM.

Turning to `CC(CNC(=O)c1ccc2c(c1)N=C(c1ccccc1)c1ccccc1S2)c1ccccc1` (stereo not shown) [drawing 1197], the Ki was 12.6 nM.

Consider `CC(C)NC(=O)c1ccc2c(c1)N=C(c1cccc(Cl)c1)c1ccccc1S2` [drawing 1269], for which the “Binding rat Inh %” value is 83% and the Ki is 20 nM.

Consider `O=C(NCc1ccccc1Br)c1ccc2c(c1)N=C(c1ccc(Cl)cc1)c1ccccc1S2` [drawing 1388], for which the Ki was 31.6 nM.

`O=C(NCCc1ccncc1)c1ccc2c(c1)N=C(c1cccc(F)c1)c1ccccc1S2` [drawing 1389]: the “Binding rat Inh %” value is on record as 88% and the Ki was 31.6 nM.

`Cc1csc(CNC(=O)c2ccc3c(c2)N=C(c2ccc(F)cc2)c2ccccc2S3)c1` [drawing 1430]: the “Binding rat Inh %” value came out at 81% and the Ki was 50.1 nM.

`O=C(NC1CCC(F)(F)CC1)c1ccc2c(c1)N=C(c1ccc(Cl)s1)c1ccccc1S2` [drawing 1224]: the “Binding rat Inh %” value was 107% and the Ki is 0.631 nM.

For `O=C(NCCC(F)(F)F)c1ccc2c(c1)N=C(c1ccc(Cl)cc1F)c1ccccc1S2` [drawing 1377], the “Binding rat Inh %” value worked out at 97% and the Ki is 5.01 nM.

Turning to `CCCCNC(=O)c1ccc2c(c1)N=C(c1ccc(F)cn1)c1ccccc1S2` [drawing 1246], the “Binding rat Inh %” value stood at 87% and the Ki is 15.8 nM.

As to `O=C(NCc1ccco1)c1ccc2c(c1)N=C(c1cccc(F)c1)c1ccccc1S2` [drawing 1252], the “Binding rat Inh %” value stood at 93% and the Ki is 15.8 nM.

As for `O=C(NCCc1ccccn1)c1ccc2c(c1)N=C(c1ccc(Cl)cc1F)c1ccccc1S2` [drawing 1398], the “Binding rat Inh %” value was 74% and the Ki was 39.8 nM.

Regarding `O=C(NCc1cccc(Cl)c1)c1ccc2c(c1)N=C(N1CCC(F)CC1)c1ccccc1S2` [drawing 1523], the Ki was 10 nM.

For the compound `CCCNC(=O)c1ccc2c(c1)N=C(c1ccc(Cl)s1)c1ccccc1S2` [drawing 1236], the “Binding rat Inh %” value is on record as 89% and the Ki was 15.8 nM.

On to `O=C(NCc1ccccc1Cl)c1ccc2c(c1)N=C(c1cccc(Cl)c1)c1ccccc1S2` [drawing 1415], for which the Ki was 6.31 nM.

For `Cc1ccc(CNC(=O)c2ccc3c(c2)N=C(c2ccc(Cl)cc2F)c2ccccc2S3)o1` [drawing 1441], the “Binding rat Inh %” value was determined as 90% and the Ki was 7.94 nM.

As to `Cc1cccc(C2=Nc3cc(C(=O)NC4CCC(F)(F)CC4)ccc3Sc3ccccc32)n1` [drawing 1425], the “Binding rat Inh %” value was 90% and the Ki is 6.31 nM.

For the compound `O=C(NCCc1cccc(Cl)c1)c1ccc2c(c1)N=C(c1ccccc1F)c1ccccc1S2` [drawing 1459], the Ki is 50.1 nM.

On to `CC(C)CNC(=O)c1ccc2c(c1)N=C(c1ccc(Cl)cc1)c1ccc(Cl)cc1S2` [drawing 1525], for which the “Binding rat Inh %” value is 86% and the Ki is 10 nM.

Take `O=C(NCc1ccccc1Br)c1ccc2c(c1)N=C(N1CCCCC1)c1ccccc1S2` [drawing 1275]: the Ki was 20 nM.

On to `O=C(NC1CCC(F)(F)CC1)c1ccc2c(c1)N=C(c1cccc(F)c1)c1ccccc1S2` [drawing 1249], for which the “Binding rat Inh %” value is recorded as 112% and the Ki was 1 nM.

With `O=C(NCCc1ccc(Cl)cc1)c1ccc2c(c1)N=C(c1ccc(Cl)cc1)c1ccccc1S2` [drawing 1376], the Ki was 5.01 nM.

Take `O=C(NCc1ccccc1)c1ccc2c(c1)N=C(c1ccc(F)cc1)c1ccccc1S2` [drawing 1409]: the Ki was 6.31 nM.

For the compound `CCCCNC(=O)c1ccc2c(c1)N=C(c1ccc(OC)cc1)c1ccccc1S2` [drawing 1532], the “Binding rat Inh %” value stood at 82% and the Ki is 10 nM.

Regarding `O=C(NCc1ccccn1)c1ccc2c(c1)N=C(c1ccc(Br)cc1)c1ccccc1S2` [drawing 1469], the “Binding rat Inh %” value worked out at 71% and the Ki is 50.1 nM.

As to `COc1ccc(C2=Nc3cc(C(=O)NCc4ccncc4)ccc3Sc3ccccc32)cc1` [drawing 1412], the “Binding rat Inh %” value was 67% and the Ki was 39.8 nM.

Regarding `C[C@@H]1CCC[C@H](C)N1NC(=O)c1ccc2c(c1)N=C(c1cccc(Cl)c1)c1ccccc1S2` [drawing 1526], the “Binding rat Inh %” value is reported as 73% and the Ki is 10 nM.

As for `CCCCNC(=O)c1ccc2c(c1)N=C(c1ccccc1)c1ccccc1S2` [drawing 1300], the Ki was 20 nM.

As to `O=C(NC1CCC(F)(F)CC1)c1ccc2c(c1)N=C(c1ccc(Cl)cc1)c1ccccc1S2`, the “Binding rat Inh %” value is on record as 90% and the Ki was 2.51 nM.

As to `O=C(NCc1cccnc1)c1ccc2c(c1)N=C(c1ccc(Cl)cc1)c1ccccc1S2` [drawing 1260], the “Binding rat Inh %” value was 76% and the Ki is 15.8 nM.

`O=C(NN1CCCC1)c1ccc2c(c1)N=C(c1ccc(Cl)cc1)c1ccccc1S2` [drawing 1502]: the “Binding rat Inh %” value was determined as 63% and the Ki is 63.1 nM.

On to `CC(C)CCNC(=O)c1ccc2c(c1)N=C(c1cccc(F)c1)c1ccccc1S2` [drawing 1240], for which the “Binding rat Inh %” value worked out at 99% and the Ki was 0.794 nM.

On to `CC(NC(=O)c1ccc2c(c1)N=C(c1ccccc1F)c1ccccc1S2)c1ccccc1` (stereo not shown) [drawing 1422], for which the Ki is 39.8 nM.

Regarding `O=C(NCCCC(F)(F)F)c1ccc2c(c1)N=C(c1cccc(F)c1)c1ccccc1S2` [drawing 1248], the “Binding rat Inh %” value worked out at 83% and the Ki was 1 nM.

`CCCCNC(=O)c1ccc2c(c1)N=C(c1cccc(Cl)c1)c1cc(F)ccc1S2` [drawing 1447]: the “Binding rat Inh %” value stood at 108% and the Ki was 7.94 nM.
